Data set [1] concerns HL-60. Put plainly: Induction of apoptosis in human HL-60 cells assessed as early apoptotic cells at 1 uM incubated for 48 hrs by annexin V-FITC/PI satining based flow cytometry (reference value: 1.24 %). The class given is functional. A general note: A flow cytometer gives signals particle by particle.
Data set [2] concerns U-937. Put plainly: Induction of apoptosis in human U-937 cells assessed as necrotic cells at 2 uM incubated for 48 hrs by annexin V-FITC/PI satining based flow cytometry (reference value: 1.96 %). The format is functional.
Data set [3] relates to U-937. The data set can be described thus: Induction of apoptosis in human U-937 cells assessed as viable cells at 1 uM incubated for 48 hrs by annexin V-FITC/PI satining based flow cytometry (reference value: 90.0 %). As to conditions: read-out: Activity. The class given is functional.
In data set [4] the test system is U-937. The data set can be described thus: Induction of apoptosis in human U-937 cells assessed as late apoptotic cells at 0.2 uM incubated for 48 hrs by annexin V-FITC/PI satining based flow cytometry (reference value: 7.10 %). The format is functional.
Data set [5] concerns HL-60. The data set can be described thus: Induction of apoptosis in human HL-60 cells assessed as necrotic cells at 0.2 uM incubated for 48 hrs by annexin V-FITC/PI satining based flow cytometry (reference value: 0.00 %). The format is functional.
Data set [6] in a line: Antiproliferative activity against HEK293T cells incubated for 72 hrs by CCK8 assay. The format is toxicity, cell-based, HEK-293T. Particulars: human. (Tetrazolium dyes change colour on reduction, which living cells bring about.)
Another data set has as its target Histone deacetylase 4 (Homo sapiens, UniProt P56524). Put plainly: Inhibition of recombinant human HDAC4 using HDAC substrate incubated for 30 mins by fluorescence based assay.
Data set [7] is described as follows: Cmax in Sprague-Dawley rat at 25 mg/kg, po measured upto 8 hrs by LC/MS-MS analysis. The format is ADME, organism-based. Set-up: time < 8 hrs, dose 25 mg/kg, route po. Particulars: in vivo.
Data set [8] has as its system U-937. The data set can be described thus: Induction of apoptosis in human U-937 cells assessed as late apoptotic cells at 1 uM incubated for 48 hrs by annexin V-FITC/PI satining based flow cytometry (reference value: 7.10 %). The format is functional.
For data set [9], the system named is U-937. Put plainly: Induction of apoptosis in human U-937 cells assessed as viable cells at 0.2 uM incubated for 48 hrs by annexin V-FITC/PI satining based flow cytometry (reference value: 90.0 %). As to conditions: read-out: Activity. The class given is functional.
Data set [10] deals with HL-60. Put plainly: Upregulation of Ac-Histone 3 level in human HL-60 cells incubated for 6 hrs by Western blot analysis. The class given is functional, cell-based. As to conditions: dose <= 1000.0 nM. A general note: In western blotting, separated proteins are transferred to a membrane and probed.
The target in another data set is Histone deacetylase 3 (Homo sapiens, UniProt O15379). The data set can be described thus: Inhibition of HDAC3 in human nuclear extract using Ac-Arg-Gly-Lys(Ac)-AMC as substrate at 1 uM incubated overnight by fluorescence based assay relative to control. The format is subcellular. Particulars: HeLa, Nucleus.
Chain of Histone deacetylase 3 (O15379 whole entry): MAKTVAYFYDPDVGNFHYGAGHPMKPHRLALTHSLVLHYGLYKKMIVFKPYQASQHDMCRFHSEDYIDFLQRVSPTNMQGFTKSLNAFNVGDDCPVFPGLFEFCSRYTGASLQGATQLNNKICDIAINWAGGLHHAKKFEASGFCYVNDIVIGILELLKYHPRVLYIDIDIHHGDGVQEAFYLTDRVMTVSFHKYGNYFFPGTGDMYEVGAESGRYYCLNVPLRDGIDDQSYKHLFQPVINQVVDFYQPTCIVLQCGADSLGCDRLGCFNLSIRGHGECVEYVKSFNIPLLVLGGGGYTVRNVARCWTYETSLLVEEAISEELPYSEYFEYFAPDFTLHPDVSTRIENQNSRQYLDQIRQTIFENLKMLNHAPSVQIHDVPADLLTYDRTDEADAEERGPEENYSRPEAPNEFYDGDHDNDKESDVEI
Data set [11] concerns U-937. The data set can be described thus: Induction of apoptosis in human U-937 cells assessed as early apoptotic cells at 2 uM incubated for 48 hrs by annexin V-FITC/PI satining based flow cytometry (reference value: 0.945 %). The format is functional.
The next data set deals with Histone deacetylase 2 (Homo sapiens, UniProt Q92769). The data set can be described thus: Inhibition of recombinant human HDAC2 using HDAC substrate incubated for 30 mins by fluorescence based assay.
Chain of Histone deacetylase 2 (Q92769 whole entry): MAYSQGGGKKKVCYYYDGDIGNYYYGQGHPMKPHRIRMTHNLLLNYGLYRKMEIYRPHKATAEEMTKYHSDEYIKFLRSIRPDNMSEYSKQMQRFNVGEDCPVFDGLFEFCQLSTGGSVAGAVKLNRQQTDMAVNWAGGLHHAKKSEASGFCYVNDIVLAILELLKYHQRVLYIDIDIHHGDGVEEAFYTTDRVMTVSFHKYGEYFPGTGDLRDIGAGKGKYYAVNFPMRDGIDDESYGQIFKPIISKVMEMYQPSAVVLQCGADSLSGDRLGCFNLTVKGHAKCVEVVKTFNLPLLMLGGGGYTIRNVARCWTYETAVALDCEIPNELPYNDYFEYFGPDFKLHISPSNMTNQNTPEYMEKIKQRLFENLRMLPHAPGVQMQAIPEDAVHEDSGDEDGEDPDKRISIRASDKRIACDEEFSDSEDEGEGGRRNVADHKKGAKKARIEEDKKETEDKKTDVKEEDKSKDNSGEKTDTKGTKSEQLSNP
The test system of data set [12] is HL-60. Put plainly: Induction of apoptosis in human HL-60 cells assessed as viable cells at 1 uM incubated for 48 hrs by annexin V-FITC/PI satining based flow cytometry (reference value: 97.4 %). The class given is functional. Particulars: read-out: Activity.
The target of data set [13] is CDK2/Cyclin A2 (Homo sapiens) (UniProt P24941+P20248). Particulars: dose 100.0 nM, time 140.0 min.
Data set [14] has as its system U-937. The data set can be described thus: Induction of apoptosis in human U-937 cells assessed as late apoptotic cells at 2 uM incubated for 48 hrs by annexin V-FITC/PI satining based flow cytometry (reference value: 7.10 %). The format is functional.
Data set [15] addresses Cyclin-Y/Cyclin-dependent kinase 16 (Homo sapiens) (UniProt Q00536+Q8ND76). Particulars: dose 100.0 nM, time 140.0 min.
The test system of data set [16] is HL-60. The data set can be described thus: Induction of apoptosis in human HL-60 cells assessed as early apoptotic cells at 0.5 uM incubated for 48 hrs by annexin V-FITC/PI satining based flow cytometry (reference value: 1.24 %). The format is functional.
For data set [17], the target named is CDK1/Cyclin E (Homo sapiens) (UniProt P06493+P24864). Put plainly: Inhibition of CDK1/cyclinE1 (unknown origin) at 100 nM preincubated for 20 mins followed by [gamma-33P]ATP addition measured after 120 mins in presence of ATP by Hot-SpotSM kinase assay relative to control. The class given is protein-complex assay. Particulars: time 140.0 min.
Chain of CDK1/Cyclin E (Homo sapiens) (P06493 whole entry, looked up): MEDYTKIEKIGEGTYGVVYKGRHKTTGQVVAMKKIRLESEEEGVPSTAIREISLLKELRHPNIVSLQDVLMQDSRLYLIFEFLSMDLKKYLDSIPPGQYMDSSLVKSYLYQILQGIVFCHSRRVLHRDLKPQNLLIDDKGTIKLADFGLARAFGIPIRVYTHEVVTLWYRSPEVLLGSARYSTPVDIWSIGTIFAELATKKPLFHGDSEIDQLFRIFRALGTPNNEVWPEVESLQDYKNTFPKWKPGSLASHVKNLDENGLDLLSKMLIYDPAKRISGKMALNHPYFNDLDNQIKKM
Chain of CDK1/Cyclin E (Homo sapiens) (P24864 whole entry, looked up): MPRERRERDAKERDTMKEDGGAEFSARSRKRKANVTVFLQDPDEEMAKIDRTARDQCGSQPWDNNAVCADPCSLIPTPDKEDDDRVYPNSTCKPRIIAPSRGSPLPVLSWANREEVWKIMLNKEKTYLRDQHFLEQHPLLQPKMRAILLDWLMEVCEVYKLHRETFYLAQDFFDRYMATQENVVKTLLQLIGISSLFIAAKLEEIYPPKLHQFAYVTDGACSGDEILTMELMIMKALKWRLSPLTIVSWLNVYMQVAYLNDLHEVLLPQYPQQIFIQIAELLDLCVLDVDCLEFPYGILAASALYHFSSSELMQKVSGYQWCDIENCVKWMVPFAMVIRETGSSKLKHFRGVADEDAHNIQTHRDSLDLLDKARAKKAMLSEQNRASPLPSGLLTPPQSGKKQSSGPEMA
The test system of data set [18] is U-937. Put plainly: Induction of apoptosis in human U-937 cells assessed as viable cells at 2 uM incubated for 48 hrs by annexin V-FITC/PI satining based flow cytometry (reference value: 90.0 %). The format is functional. Particulars: read-out: Activity.
Data set [19] addresses CDK6/cyclin D3 (Homo sapiens) (UniProt P30281+Q00534). Put plainly: Inhibition of CDK6/cyclinD3 (unknown origin) at 100 nM preincubated for 20 mins followed by [gamma-33P]ATP addition measured after 120 mins in presence of ATP by Hot-SpotSM kinase assay relative to control. The format is protein-complex assay. Particulars: time 140.0 min.
The next data set addresses Histone deacetylase 8 (Homo sapiens, UniProt Q9BY41). The data set can be described thus: Inhibition of recombinant human HDAC8 using HDAC substrate incubated for 30 mins by fluorescence based assay.
In another data set the target is Histone deacetylase 1 (Homo sapiens, UniProt Q13547). The data set can be described thus: Inhibition of recombinant human HDAC1 using HDAC substrate incubated for 30 mins by fluorescence based assay.
Chain of Histone deacetylase 1 (Q13547 whole entry): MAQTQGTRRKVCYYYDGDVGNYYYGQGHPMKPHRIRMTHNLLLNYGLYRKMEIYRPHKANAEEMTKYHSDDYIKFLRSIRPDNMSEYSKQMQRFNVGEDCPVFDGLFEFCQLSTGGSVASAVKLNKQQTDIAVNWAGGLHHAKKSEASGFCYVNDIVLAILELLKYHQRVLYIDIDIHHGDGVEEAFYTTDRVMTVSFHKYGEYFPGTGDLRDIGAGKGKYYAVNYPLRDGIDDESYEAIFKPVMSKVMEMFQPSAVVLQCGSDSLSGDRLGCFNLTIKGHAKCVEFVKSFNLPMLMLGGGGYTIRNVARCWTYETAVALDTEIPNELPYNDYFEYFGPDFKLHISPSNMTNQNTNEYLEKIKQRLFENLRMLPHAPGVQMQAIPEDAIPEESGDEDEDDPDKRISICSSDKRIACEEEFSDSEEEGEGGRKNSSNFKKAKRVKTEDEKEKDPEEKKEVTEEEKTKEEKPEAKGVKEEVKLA
Data set [20] in a line: AUC in Sprague-Dawley rat at 5 mg/kg, iv measured upto 6 hrs by LC/MS-MS analysis. The format is ADME, organism-based. Further details: dose 5 mg/kg, time < 6 hrs, route iv. Particulars: in vivo.
Data set [21] in a line: Clearance in Sprague-Dawley rat at 5 mg/kg, iv measured upto 6 hrs by LC/MS-MS analysis. The format is ADME, organism-based. As to conditions: in vivo.
The subject of data set [22] is U-937. The data set can be described thus: Induction of apoptosis in human U-937 cells assessed as early apoptotic cells at 0.6 uM incubated for 48 hrs by annexin V-FITC/PI satining based flow cytometry (reference value: 1.93 %). The class given is functional.
For data set [23], the system named is HL-60. The data set can be described thus: Induction of differentiation in human HL-60 cells assessed as increase in CD11b positive cells at 1.2 uM incubated for 24 hrs by FITC staining based flow cytometry (reference value: 1.12 %). The class given is functional.
Data set [24] deals with U-937. Put plainly: Induction of apoptosis in human U-937 cells assessed as late apoptotic cells at 1.2 uM incubated for 48 hrs by annexin V-FITC/PI satining based flow cytometry (reference value: 4.23 %). The class given is functional.
In data set [25] the test system is U-937. Put plainly: Induction of apoptosis in human U-937 cells assessed as viable cells at 2.5 uM incubated for 48 hrs by annexin V-FITC/PI satining based flow cytometry (reference value: 93.7 %). As to conditions: read-out: Activity. The format is functional.
For data set [26], the system named is U-937. Put plainly: Induction of apoptosis in human U-937 cells assessed as early apoptotic cells at 5 uM incubated for 48 hrs by annexin V-FITC/PI satining based flow cytometry (reference value: 1.93 %). The format is functional.
For data set [27], the system named is HL-60. Put plainly: Induction of apoptosis in human HL-60 cells assessed as early apoptotic cells at 5 uM incubated for 48 hrs by annexin V-FITC/PI satining based flow cytometry (reference value: 2.4 %). The class given is functional.
Data set [28] has as its system U-937. The data set can be described thus: Induction of differentiation in human U-937 cells assessed as increase in CD11b positive cells at 2.5 uM incubated for 48 hrs by FITC staining based flow cytometry (reference value: […] %). The class given is functional.
Data set [29] concerns HL-60. The data set can be described thus: Induction of apoptosis in human HL-60 cells assessed as early apoptotic cells at 1.2 uM incubated for 48 hrs by annexin V-FITC/PI satining based flow cytometry (reference value: 2.4 %). The format is functional.

Some results are limits rather than exact numbers.

Chain of Histone deacetylase 4 (P56524 whole entry): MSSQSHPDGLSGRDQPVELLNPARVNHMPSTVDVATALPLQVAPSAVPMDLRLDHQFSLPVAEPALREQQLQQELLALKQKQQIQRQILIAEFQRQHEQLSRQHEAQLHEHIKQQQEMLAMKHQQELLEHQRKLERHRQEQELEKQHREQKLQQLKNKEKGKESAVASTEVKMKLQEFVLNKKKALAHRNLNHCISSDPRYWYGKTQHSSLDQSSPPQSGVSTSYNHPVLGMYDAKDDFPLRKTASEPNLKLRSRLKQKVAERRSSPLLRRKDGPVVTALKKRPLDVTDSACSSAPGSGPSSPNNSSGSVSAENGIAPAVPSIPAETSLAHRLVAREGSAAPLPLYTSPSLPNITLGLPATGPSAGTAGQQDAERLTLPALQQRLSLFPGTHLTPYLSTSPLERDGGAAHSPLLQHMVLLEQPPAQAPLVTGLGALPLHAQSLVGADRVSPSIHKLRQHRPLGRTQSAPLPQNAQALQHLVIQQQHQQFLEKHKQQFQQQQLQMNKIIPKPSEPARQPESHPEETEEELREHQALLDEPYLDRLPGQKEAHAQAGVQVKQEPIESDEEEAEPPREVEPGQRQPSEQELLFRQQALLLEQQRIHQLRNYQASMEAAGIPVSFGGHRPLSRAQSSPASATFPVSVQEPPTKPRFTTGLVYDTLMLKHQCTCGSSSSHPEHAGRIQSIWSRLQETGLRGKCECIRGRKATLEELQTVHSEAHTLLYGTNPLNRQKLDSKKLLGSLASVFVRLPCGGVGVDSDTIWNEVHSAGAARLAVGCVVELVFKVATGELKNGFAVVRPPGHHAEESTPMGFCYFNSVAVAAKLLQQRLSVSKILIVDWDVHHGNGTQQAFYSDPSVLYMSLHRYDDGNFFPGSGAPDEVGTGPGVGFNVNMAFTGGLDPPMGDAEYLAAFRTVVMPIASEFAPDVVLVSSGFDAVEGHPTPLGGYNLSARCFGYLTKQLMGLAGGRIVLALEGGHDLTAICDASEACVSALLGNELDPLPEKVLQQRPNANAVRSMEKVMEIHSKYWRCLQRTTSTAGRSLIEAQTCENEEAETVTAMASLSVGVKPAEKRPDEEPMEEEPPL
Chain of Histone deacetylase 8 (Q9BY41 whole entry): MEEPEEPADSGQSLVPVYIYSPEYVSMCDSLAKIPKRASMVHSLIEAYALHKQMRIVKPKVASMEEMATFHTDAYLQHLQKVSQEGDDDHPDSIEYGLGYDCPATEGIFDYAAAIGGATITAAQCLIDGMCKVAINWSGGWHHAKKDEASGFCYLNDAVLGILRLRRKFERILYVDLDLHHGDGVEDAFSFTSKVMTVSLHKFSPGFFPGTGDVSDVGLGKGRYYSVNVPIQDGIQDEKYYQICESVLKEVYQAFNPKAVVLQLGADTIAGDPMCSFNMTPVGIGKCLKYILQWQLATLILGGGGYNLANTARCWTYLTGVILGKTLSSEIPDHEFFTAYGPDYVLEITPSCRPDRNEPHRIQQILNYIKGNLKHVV

As a reminder, the IC50 is the midpoint of a concentration-inhibition curve. For orientation: Cmax means the maximum level reached in the sampled fluid or tissue. The term inhibition denotes the percentage by which the read-out fell short of the control. One may read the AUC as concentration integrated over time. Higher therefore signals high exposure. Usually clearance stands for the volume of plasma or blood freed of the substance per unit of time. On to `Nc1ccccc1NC(=O)c1ccc(NC(=O)c2n[nH]cc2NC(=O)c2c(Cl)cccc2Cl)cc1`, for which the Activity in the data set with HL-60 [1] is 17%; in the data set with U-937 [2], 3.3%; with U-937 [4], 8.15%; in the data set with HL-60 [5] it was 0.02%; in the data set with U-937 [8], 34.1%; in the data set with HL-60 [10] it was “Dose-Dependent Effect”. Moreover, the figures for the Activity in the data set with U-937 [11], with U-937 [14] and in the data set with HL-60 [16] were 2.14%, 88.7% and 2.42%, respectively. In addition, the viability at 1 µM came out at 48.9% in the data set on U-937 [3] and 43.5% in the data set on HL-60 [12]. In [6], this compound gave a half-maximal inhibitory concentration (IC50) at 72 h of over 20000 nM. In addition, the IC50 on Histone deacetylase 4 was over 1000 nM; on Histone deacetylase 2, 98.8 nM; on Histone deacetylase 8, 1010 nM; on Histone deacetylase 1 it was 35.7 nM. The compound further yielded a Cmax in data set [7] of 1430 ng/mL. Moreover, the viability at 0.2 µM in the data set on U-937 [9] was 87.4%. For the same compound, the inhibition came to 100% against Histone deacetylase 3; 69.1% in data set [13]; 35.4% in data set [15]; 27.6% in data set [17]; 21.4% in data set [19]. Moreover, in the data set on U-937 [18], the viability at 2 µM stood at 5.82%. The compound also had an AUC in data set [20] of 836 ng·h/mL. The same compound gave a clearance in data set [21] of 88.5 mL/min/kg.
For the compound `Nc1cc(F)ccc1NC(=O)c1ccc(CNC(=O)/C=C/c2cccnc2)cc1` [TUCIDINOSTAT], the Activity with U-937 [22] amounted to 1.65%; with HL-60 [23], 51%; with U-937 [24], 6.77%; in the data set with U-937 [26] it was 4.66%; in the data set on HL-60 [27], 8.11%; in the data set with U-937 [28], 5.59%. Moreover, the Activity in the data set with HL-60 [29] is 3.72%. Moreover, the viability at 2.5 µM in the data set with U-937 [25] worked out at 87.5%.
